Experimental data reported in patent US20250241891A1, “TREATMENT OF ANXIETY” (GH RESEARCH IRELAND LIMITED, priority 2022, published 2025).

Columns and labels:
[1] = Pharmacokinetics of 5-MeO-DMT and bufotenine after inhalation; type: in vivo, human
Protocol: Blood samples were obtained at 1; 2; 4; 7; 10; 15; 20; 30; 45 min and 1; 1.5; 2; 3; 4 hours after administration.
PK parameters were generated by algebraic analysis of the concentration versus time plots for each individual. The analysis was carried out using the software Phoenix WinNonlin 6.3.

[2] = test system: patients with treatment-resistant major depressive disorder (TRD); experiment: Phase 1/2 clinical trial of inhaled 5-MeO-DMT in TRD (MADRS, BPRS, safety); conditions: for patients experiencing at least one ADR: n=4, all ADRs mild and resolved spontaneously
Protocol: Patients were assigned to different groups. In the context of the present invention, the group who received a single, 12 mg dose and the group who underwent an intra-day individualized dosing regimen (IDR) that allowed for multiple, escalating doses (6 mg, 12 mg and 18 mg) within a single day, driven by the intensity of the patient-reported psychedelic experience are of interest.
The data gathered include the assessment of the treated patients against several scales including the Montgomery-Åsberg Depression Rating Scale (MADRS) and the Brief Psychiatric Rating Scale (BPRS).
This trial was designed in two parts. Part A was an open-label, single-arm, single-dose Phase 1 trial with two dose levels (12 mg (n=4) and 18 mg (n=4)). […] The primary endpoint of Part B was to assess the effects on the severity of depression, as assessed by the proportion of patients in remission on day seven after dosing, defined as a MADRS total score of less than or equal to 10.

[3] = TRD, IDR 6/12/18 mg inhaled, sum n=8, 2 h after last dose, baseline 26
[4] = TRD, IDR 6/12/18 mg inhaled, sum n=8, 2 h after last dose, baseline 28
[5] = TRD, IDR 6/12/18 mg inhaled, sum n=8, 3 h after last dose, baseline 37
[6] = TRD, IDR 6/12/18 mg inhaled, sum n=8, day 1, baseline 25
[7] = TRD, IDR 6/12/18 mg inhaled, sum n=8, day 1, baseline 26
[8] = TRD, IDR 6/12/18 mg inhaled, sum n=8, day 1, baseline 37
[9] = TRD, IDR 6/12/18 mg inhaled, sum n=8, day 7, baseline 25
[10] = TRD, IDR 6/12/18 mg inhaled, sum n=8, day 7, baseline 26
[11] = TRD, IDR 6/12/18 mg inhaled, sum n=8, day 7, baseline 30
[12] = TRD, IDR 6/12/18 mg inhaled, sum n=8, day 7, baseline 37
[13] = TRD, single 12 mg inhaled, sum n=4, 2 h after dose, baseline 13
[14] = TRD, single 12 mg inhaled, sum n=4, 2 h after dose, baseline 16
[15] = TRD, single 12 mg inhaled, sum n=4, 3 h after dose, baseline 18
[16] = TRD, single 12 mg inhaled, sum n=4, 3 h after dose, baseline 25
[17] = TRD, single 12 mg inhaled, sum n=4, day 1, baseline 12
[18] = TRD, single 12 mg inhaled, sum n=4, day 1, baseline 13
[19] = TRD, single 12 mg inhaled, sum n=4, day 1, baseline 16
[20] = TRD, single 12 mg inhaled, sum n=4, day 1, baseline 25
[21] = TRD, single 12 mg inhaled, sum n=4, day 7, baseline 12
[22] = TRD, single 12 mg inhaled, sum n=4, day 7, baseline 13
[23] = TRD, single 12 mg inhaled, sum n=4, day 7, baseline 16
[24] = TRD, single 12 mg inhaled, sum n=4, day 7, baseline 25

Compound: COc1ccc2[nH]cc(CCN(C)C)c2c1 [5-MeO-DMT]
- detectability in the plasma ([1]; 3 hours after inhalation, whole dose range 6, 12, 18 mg): no longer detectable
- pharmacokinetic measurements with uptitration dosing schemes compared with single doses ([1]; inhalation, uptitration): Substantially similar results were obtained
- accumulation upon repeated administration ([1]; repeated inhalation within a time frame of 1 to 4 hours): No accumulation is observed
- patients experiencing at least one ADR ([2]; Part A, single 12 mg inhaled): 3 of 4
- SAEs ([2]; Part A, single 12 mg or 18 mg inhaled): No SAEs were reported
- patients experiencing at least one ADR ([2]; Part A, single 18 mg inhaled): 3 of 4
- SAEs ([2]; Part B, IDR 6/12/18 mg inhaled, n=8): No SAEs were reported
- MADRS Suicidal Thoughts score ([2]; TRD, IDR 6/12/18 mg inhaled, sum n=8, 2 h after last dose, baseline 11): 3
- MADRS Inner Tension percentage improvement [2, 3]: 58%
- MADRS Inner Tension score [2, 3]: 11
- MADRS Lassitude score ([2]; TRD, IDR 6/12/18 mg inhaled, sum n=8, 2 h after last dose, baseline 27): 10
- MADRS Pessimistic Thoughts percentage improvement [2, 4]: 75.00%
- MADRS Pessimistic Thoughts score [2, 4]: 7
- MADRS Concentration Difficulties score ([2]; TRD, IDR 6/12/18 mg inhaled, sum n=8, 2 h after last dose, baseline 30): 11
- MADRS Inability to Feel score ([2]; TRD, IDR 6/12/18 mg inhaled, sum n=8, 2 h after last dose, baseline 36): 12
- BPRS Emotional Withdrawal score ([2]; TRD, IDR 6/12/18 mg inhaled, sum n=8, 3 h after last dose, baseline 13): 8
- BPRS Blunted Affect score ([2]; TRD, IDR 6/12/18 mg inhaled, sum n=8, 3 h after last dose, baseline 15): 11
- BPRS Tension score ([2]; TRD, IDR 6/12/18 mg inhaled, sum n=8, 3 h after last dose, baseline 16): 11
- BPRS Guilt Feelings score ([2]; TRD, IDR 6/12/18 mg inhaled, sum n=8, 3 h after last dose, baseline 34): 14
- BPRS Anxiety percentage improvement [2, 5]: 49%
- BPRS Anxiety score [2, 5]: 19
- MADRS Suicidal Thoughts score ([2]; TRD, IDR 6/12/18 mg inhaled, sum n=8, day 1, baseline 11): 1
- BPRS Emotional Withdrawal score ([2]; TRD, IDR 6/12/18 mg inhaled, sum n=8, day 1, baseline 13): 8
- BPRS Blunted Affect score ([2]; TRD, IDR 6/12/18 mg inhaled, sum n=8, day 1, baseline 15): 8
- BPRS Tension score ([2]; TRD, IDR 6/12/18 mg inhaled, sum n=8, day 1, baseline 16): 11
- MADRS Reduced Sleep percentage improvement [2, 6]: 52%
- MADRS Reduced Sleep score [2, 6]: 12
- MADRS Inner Tension percentage improvement [2, 7]: 77%
- MADRS Inner Tension score [2, 7]: 6
- MADRS Lassitude score ([2]; TRD, IDR 6/12/18 mg inhaled, sum n=8, day 1, baseline 27): 5
- MADRS Pessimistic Thoughts score ([2]; TRD, IDR 6/12/18 mg inhaled, sum n=8, day 1, baseline 28): 4
- MADRS Concentration Difficulties score ([2]; TRD, IDR 6/12/18 mg inhaled, sum n=8, day 1, baseline 30): 1
- BPRS Guilt Feelings score ([2]; TRD, IDR 6/12/18 mg inhaled, sum n=8, day 1, baseline 34): 11
- MADRS Inability to Feel score ([2]; TRD, IDR 6/12/18 mg inhaled, sum n=8, day 1, baseline 36): 2
- BPRS Anxiety percentage improvement [2, 8]: 57%
- BPRS Anxiety score [2, 8]: 16
- MADRS Suicidal Thoughts score ([2]; TRD, IDR 6/12/18 mg inhaled, sum n=8, day 7, baseline 11): 3
- BPRS Emotional Withdrawal score ([2]; TRD, IDR 6/12/18 mg inhaled, sum n=8, day 7, baseline 13): 8
- BPRS Blunted Affect score ([2]; TRD, IDR 6/12/18 mg inhaled, sum n=8, day 7, baseline 15): 8
- BPRS Tension score ([2]; TRD, IDR 6/12/18 mg inhaled, sum n=8, day 7, baseline 16): 10
- MADRS Reduced Sleep percentage improvement [2, 9]: 64%
- MADRS Reduced Sleep score [2, 9]: 9
- MADRS Inner Tension percentage improvement [2, 10]: 54%
- MADRS Inner Tension score [2, 10]: 12
- MADRS Lassitude score ([2]; TRD, IDR 6/12/18 mg inhaled, sum n=8, day 7, baseline 27): 3
- MADRS Pessimistic Thoughts score ([2]; TRD, IDR 6/12/18 mg inhaled, sum n=8, day 7, baseline 28): 3
- MADRS Concentration Difficulties percentage improvement [2, 11]: 70.00%
- MADRS Concentration Difficulties score [2, 11]: 9
- BPRS Guilt Feelings score ([2]; TRD, IDR 6/12/18 mg inhaled, sum n=8, day 7, baseline 34): 10
- MADRS Inability to Feel score ([2]; TRD, IDR 6/12/18 mg inhaled, sum n=8, day 7, baseline 36): 6
- BPRS Anxiety percentage improvement [2, 12]: 54%
- BPRS Anxiety score [2, 12]: 17
- MADRS Suicidal Thoughts score ([2]; TRD, single 12 mg inhaled, sum n=4, 2 h after dose, baseline 8): 3
- MADRS Inner Tension percentage improvement [2, 13]: 85%
- MADRS Inner Tension score [2, 13]: 2
- MADRS Concentration Difficulties score [2, 14]: 7
- MADRS Inability to Feel score [2, 14]: 9
- MADRS Lassitude score [2, 14]: 10
- MADRS Pessimistic Thoughts percentage improvement [2, 14]: 50.00%
- MADRS Pessimistic Thoughts score [2, 14]: 8
- BPRS Blunted Affect score ([2]; TRD, single 12 mg inhaled, sum n=4, 3 h after dose, baseline 11): 8
- BPRS Emotional Withdrawal score ([2]; TRD, single 12 mg inhaled, sum n=4, 3 h after dose, baseline 13): 11
- BPRS Tension score ([2]; TRD, single 12 mg inhaled, sum n=4, 3 h after dose, baseline 14): 9
- BPRS Guilt Feelings percentage improvement [2, 15]: 50.00%
- BPRS Guilt Feelings score [2, 15]: 9
- BPRS Anxiety percentage improvement [2, 16]: 56%
- BPRS Anxiety score [2, 16]: 11
- MADRS Suicidal Thoughts score ([2]; TRD, single 12 mg inhaled, sum n=4, day 1, baseline 8): 5
- BPRS Blunted Affect score ([2]; TRD, single 12 mg inhaled, sum n=4, day 1, baseline 11): 6
- MADRS Reduced Sleep percentage improvement [2, 17]: 17%
- MADRS Reduced Sleep score [2, 17]: 10
- BPRS Emotional Withdrawal score [2, 18]: 8
- MADRS Inner Tension percentage improvement [2, 18]: 77%
- MADRS Inner Tension score [2, 18]: 3
- BPRS Tension score ([2]; TRD, single 12 mg inhaled, sum n=4, day 1, baseline 14): 6
- MADRS Concentration Difficulties score [2, 19]: 2
- MADRS Inability to Feel score [2, 19]: 1
- MADRS Lassitude percentage improvement [2, 19]: 100.00%
- MADRS Lassitude score [2, 19]: 0
- MADRS Pessimistic Thoughts score [2, 19]: 7
- BPRS Guilt Feelings score ([2]; TRD, single 12 mg inhaled, sum n=4, day 1, baseline 18): 5
- BPRS Anxiety percentage improvement [2, 20]: 76%
- BPRS Anxiety score [2, 20]: 6
- MADRS Suicidal Thoughts score ([2]; TRD, single 12 mg inhaled, sum n=4, day 7, baseline 8): 7
- BPRS Blunted Affect score ([2]; TRD, single 12 mg inhaled, sum n=4, day 7, baseline 11): 5
- MADRS Reduced Sleep percentage improvement [2, 21]: 50%
- MADRS Reduced Sleep score [2, 21]: 6
- BPRS Emotional Withdrawal score [2, 22]: 6
- MADRS Inner Tension percentage improvement [2, 22]: 62%
- MADRS Inner Tension score [2, 22]: 5
- BPRS Tension score ([2]; TRD, single 12 mg inhaled, sum n=4, day 7, baseline 14): 6
- MADRS Concentration Difficulties score [2, 23]: 3
- MADRS Inability to Feel score [2, 23]: 1
- MADRS Lassitude score [2, 23]: 3
- MADRS Pessimistic Thoughts percentage improvement [2, 23]: 50.00%
- MADRS Pessimistic Thoughts score [2, 23]: 8
- BPRS Guilt Feelings score ([2]; TRD, single 12 mg inhaled, sum n=4, day 7, baseline 18): 5
- BPRS Anxiety percentage improvement [2, 24]: 76%
- BPRS Anxiety score [2, 24]: 6
